Measured values taken from article PMC9643853, “Synthesis and evaluation of 3-alkynyl-5-aryl-7-aza-indoles as broad-spectrum antiviral agents” (Frontiers in Chemistry, 2022).
Read-outs that look alike come from different tables or passages of the source.

Legend:
VEEV (TC-83) [1] = conditions: U-87 MG cells; recently reported; ref Pu et al., 2020; cited from earlier work
U-87 MG cells = tested on: U-87 MG cells; design: method as in Pu et al., 2020; conditions: ref Pu et al., 2020; cited from earlier work
[2] = biological target: adaptor-associated kinase 1 (AAK1); design: method as in Verdonck et al., 2019; conditions: ref Verdonck et al., 2019; read-out: AAK1 IC50 (enzymatic assay); cited from earlier work
VEEV (TC-83) [3] = test: microbe, parasite or virus in culture; assay type: cell-based; conditions: Venezuelan equine encephalitis virus, U-87 MG, 18 h, read-out: VEEV EC50
AAK1 = AAK1 (Homo sapiens, UniProt Q2M2I8); test: LanthaScreen Eu Kinase Binding Assay for AAK1
AAK1, sequence (Q2M2I8 whole entry): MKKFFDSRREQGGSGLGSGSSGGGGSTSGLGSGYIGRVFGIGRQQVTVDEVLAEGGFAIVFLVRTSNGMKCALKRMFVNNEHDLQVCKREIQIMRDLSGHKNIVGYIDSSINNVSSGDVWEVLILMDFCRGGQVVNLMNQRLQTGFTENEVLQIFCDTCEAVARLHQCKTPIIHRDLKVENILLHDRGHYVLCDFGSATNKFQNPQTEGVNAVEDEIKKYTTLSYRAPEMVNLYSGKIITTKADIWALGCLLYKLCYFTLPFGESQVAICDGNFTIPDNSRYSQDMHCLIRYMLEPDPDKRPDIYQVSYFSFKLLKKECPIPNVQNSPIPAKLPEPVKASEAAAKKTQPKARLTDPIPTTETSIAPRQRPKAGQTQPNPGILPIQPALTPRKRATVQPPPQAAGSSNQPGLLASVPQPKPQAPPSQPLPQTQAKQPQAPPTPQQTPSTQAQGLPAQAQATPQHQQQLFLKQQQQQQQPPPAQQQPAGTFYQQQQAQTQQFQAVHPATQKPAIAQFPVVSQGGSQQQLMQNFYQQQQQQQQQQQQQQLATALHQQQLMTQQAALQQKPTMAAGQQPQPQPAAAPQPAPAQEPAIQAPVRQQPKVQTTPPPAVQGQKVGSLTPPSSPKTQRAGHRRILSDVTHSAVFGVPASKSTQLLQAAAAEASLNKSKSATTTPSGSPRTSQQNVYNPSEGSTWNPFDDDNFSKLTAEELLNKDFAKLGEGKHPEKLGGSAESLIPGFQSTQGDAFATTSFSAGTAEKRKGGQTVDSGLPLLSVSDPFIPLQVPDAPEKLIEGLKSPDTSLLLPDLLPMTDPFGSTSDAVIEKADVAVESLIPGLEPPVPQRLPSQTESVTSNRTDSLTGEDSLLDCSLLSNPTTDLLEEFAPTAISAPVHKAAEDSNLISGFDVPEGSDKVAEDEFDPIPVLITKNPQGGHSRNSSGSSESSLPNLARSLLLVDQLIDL

in vitro [4] = conditions: human
RSV-A [5] = test: RSV-A cytopathic effect (CPE) reduction assay in HEp-2 cells, MTS read-out; assay type: cell-based, human respiratory syncytial virus, RSV-A strain Long
in vitro [6] = conditions: human; remark: listed apart in the source
SARS-CoV-2 = test: microbe, parasite or virus in culture; assay type: cell-based, SARS-CoV-2 BetaCov/Belgium/GHB-03021/2020; conditions: Severe acute respiratory syndrome coronavirus 2, 96 h, read-out: SARS-CoV-2 EC50
RSV-A [7] = test: Anti-RSV-A activity in A549 cells, viral RNA in supernatant by RT-qPCR; assay type: cell-based, RSV-A strain Long; conditions: human respiratory syncytial virus, 120 h; A549 cells, RT-qPCR of culture supernatant, MOI 0.1, 5 days; read-out: RSV-A EC50 (A549, viral RNA levels)
in vitro [8] = conditions: African green monkey
[9] = human respiratory syncytial virus, HEp-2, 96 h; read-out: RSV-A EC50

Structure (SMILES) | EC50 (VEEV (TC-83) [1]) [µM] | CC50 (U-87 MG cells) [µM] | IC50 [2] [µM] | EC50 (VEEV (TC-83) [3]) [µM] | IC50 (AAK1) [µM] | CC50 at 4 days (in vitro [4]) [µM] | selectivity index (SI) (RSV-A [5]; CC50 HEp-2 / EC50 RSV-A) | EC50 (RSV-A [5]; human respiratory syncytial virus, HEp-2, 96 h, read-out: RSV-A EC50) [µM] | CC50 (in vitro [6]) [µM] | AAK1 affinity (in words) (AAK1) | EC50 (RSV-A [5]; [9]) [µM] | EC50 (SARS-CoV-2) [µM] | EC50 (RSV-A [7]) [µM] | CC50 (in vitro [8]) [µM]
COc1cc(O)c2c(c1)/C=C/C[C@H](O)[C@H](O)C(=O)/C=C\C[C@H](C)OC2=O [5Z-7-Oxozeanol] | 2.66 ± 0.13 | > 10 | – | – | – | – | – | – | – | – | – | – | – | –
COc1ccc(-c2cnc3[nH]cc(C#Cc4cccnc4)c3c2)cc1OC [Compound 1] | – | – | 0.004 | 1.22 ± 0.22 | 0.0042 | 2 | 10.5 | 0.19 ± 0.13 | > 10 | – | – | – | – | –
CCNC(=O)c1ccc(-c2cnc3[nH]cc(C#Cc4cccnc4)c3c2)cc1 [Compound 8b] | – | – | – | 6.01 ± 1.81 | 0.004 | 50 | – | – | > 10 | low nanomolar AAK1 affinity | 0.3 ± 0.28 | 0.58 ± 0.05 | 0.01 | > 100
CNC(=O)c1cccc(-c2cnc3[nH]cc(C#Cc4cccnc4)c3c2)c1 [Compound 8e] | – | – | – | > 10 | 0.0035 | > 50 | – | – | > 10 | low nanomolar AAK1 affinity | 0.29 ± 0.32 | – | 0.2 | –
O=C(NC1CC1)c1cccc(-c2cnc3[nH]cc(C#Cc4cccnc4)c3c2)c1 [Compound 8f] | – | – | – | 2.75 ± 1.22 | 0.0054 | > 50 | – | – | > 10 | low nanomolar AAK1 affinity | 0.16 ± 0.025 | – | 0.59 | –
